In US9682965B2, “Fumagillol heterocyclic compounds and methods of making and using same” (Zafgen, Inc., priority 2015, dated 2017):
Counter-ions that a name gives are not always drawn. Like-named read-outs stand apart in the source and are kept apart here.

Key:
recombinant human MetAP2 = recombinant human MetAP2 (Homo sapiens (Human), UniProt P50579); assay: recombinant human MetAP2 enzyme inhibition assay; assay type: biochemical
Description: Compounds are tested for their capacity to inhibit recombinant human MetAP2 activity using the following assay.
Flag tagged Human recombinant MetAP2 expressed and isolated for use as the enzyme source. 10 mM stock solutions of compounds were prepared in 100% DMSO and further diluted in 100% DMSO required concentration to 1 mM stocks. The stock compound solutions and DMSO vehicle controls were diluted to target final compound concentrations using assay buffer to a final concentration of 50 mM HEPES containing 100 mM NaCl, pH adjusted to 7.5. The MAS peptide was formulated to a 7.5 mM stock in distilled water and prior to use further diluted 1:4. […] 40 μl of enzyme was mixed with 100 μl of MnCl2 then further diluted in assay buffer to a final concentration of 16 μg/ml. To test for compound effect on MetAP2 enzyme activity, 5 μl of test compound, 10 μl of MAS substrate/amino acid oxidase mixture, 10 μl of MetAP2 was added to test wells in a 384 well black plate with blank wells containing no enzyme, replaced with 10 μl of assay buffer. All compounds were tested in duplicate on two occasions on the same day.
The plate was sealed with a TopSeal A cover and mixed briefly on an orbital mixer at 900 rpm. The plate was incubated for a further 25 minutes at 25° C. A 5× stock of Amplex buffer was prepared (0.25M sodium phosphate, pH 7.4) and stored at 4° C. […] 25 μl detection reagent was added to each well of the test plate, which was re-sealed and mixed briefly on an orbital shaker.

[1] = test system: Male Sprague Dawley rats on high fat diet; assay: 11 day rat DIO model (body weight, food intake, hematology, blood chemistries); assay type: in vivo; details: 264 h; DIO rat, 0.3 mpk sc, once a day for 11 days; read-out: DIO Rat 11-day weight loss vs vehicle
How it was run: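 Male Sprague Dawley rats on 45% high-fat diet, acclimated 3 days to vehicle injections, then given compound (0.03-1.0 mg/kg) or vehicle (10% DMSO in water) sc once daily for 11 days. Body weight and food intake recorded daily. Blood taken about 2 h after the final dose for hematology and chemistry.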

[2] = test system: Diet Induced Obese (DIO) C57BL/6 mice; assay: 10 day DIO mouse model (body weight, food intake, hematology, blood chemistry); assay type: in vivo; details: 240 h, DIO mouse, once a day for 10 days, read-out: DIO Mouse 10-day weight loss vs vehicle; for inhibition in vivo at 0.3 mg/kg: 0.3 mpk sc
How it was run: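 DIO C57BL/6 mice on 60% kcal fat diet received compounds subcutaneously once daily for 10 days at 1.0, 0.5, 0.3, 0.1 or 0.03 mpk, in 10% DMSO in water, after 3-day vehicle acclimation. Body weight and food intake were recorded daily. Hematology and blood chemistry were taken on Day 11, 24 h post-final dose.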

[3] = recombinant human MetAP2, MAS peptide substrate, 25 minutes at 25° C

Sequence of recombinant human MetAP2 (P50579 whole entry): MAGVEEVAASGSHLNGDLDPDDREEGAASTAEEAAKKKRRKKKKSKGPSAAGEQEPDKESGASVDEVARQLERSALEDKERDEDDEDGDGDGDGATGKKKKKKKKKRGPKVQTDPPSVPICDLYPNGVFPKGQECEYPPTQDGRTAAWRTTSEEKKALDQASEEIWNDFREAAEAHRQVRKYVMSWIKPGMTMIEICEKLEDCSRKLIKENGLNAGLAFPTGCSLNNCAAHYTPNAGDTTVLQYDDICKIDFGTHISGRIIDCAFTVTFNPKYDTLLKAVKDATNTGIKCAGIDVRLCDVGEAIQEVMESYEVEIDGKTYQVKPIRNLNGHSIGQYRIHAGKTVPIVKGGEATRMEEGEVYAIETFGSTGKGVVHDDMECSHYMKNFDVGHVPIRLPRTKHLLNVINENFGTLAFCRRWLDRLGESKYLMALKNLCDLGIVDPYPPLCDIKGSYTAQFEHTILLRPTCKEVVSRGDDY

Structure (SMILES)	IC50 (recombinant human MetAP2; [3]) [nM]	inhibition in vivo at 0.3 mg/kg [1] [%]	inhibition in vivo at 0.3 mg/kg [2] [%]	inhibition in vivo at 1 mg/kg ([2]; 1.0 mpk sc) [%]	IC50 (recombinant human MetAP2) [nM]
CCN(CC)CC[C@H]1CCN(C(=O)O[C@@H]2CC[C@]3(CO3)[C@@H]([C@@]3(C)O[C@@H]3CC=C(C)C)[C@@H]2OC)C1 [Example 52, (S)-((3R,4S,5S,6R)-5-methoxy-4-((2R,3R)-2-methyl-3-(3-methylbut-2-enyl)oxiran-2-yl)-1-oxaspiro[2.5]octan-6-yl) 3-(2-(diethylamino)ethyl)pyrrolidine-1-carboxylate]	< 50	4	8.3	–	–
CCN(CC)CC[C@H]1CCN(C(=O)O[C@@H]2CC[C@]3(CO3)[C@@H]([C@@]3(C)O[C@@H]3CC=C(C)C)[C@@H]2OC)C1 [Example 53, (S)-((3R,4S,5S,6R)-5-methoxy-4-((2R,3R)-2-methyl-3-(3-methylbut-2-enyl)oxiran-2-yl)-1-oxaspiro[2.5]octan-6-yl) 3-(2-(diethylamino)ethyl)pyrrolidine-1-carboxylate]	< 50	3	10.9	–	–
CO[C@@H]1[C@H](OC(=O)N2CC(OC(N)=O)C2)CC[C@]2(CO2)[C@H]1[C@@]1(C)O[C@@H]1CC=C(C)C [Example 72, (3R,4S,5S,6R)-5-methoxy-4-((2R,3R)-2-methyl-3-(3-methylbut-2-enyl)oxiran-2-yl)-1-oxaspiro[2.5]octan-6-yl 3-(carbamoyloxy)azetidine-1-carboxylate]	< 50	–	0.8	–	–
CCN(CC)CCNC(=O)OC1CN(C(=O)O[C@@H]2CC[C@]3(CO3)[C@@H]([C@@]3(C)O[C@@H]3CC=C(C)C)[C@@H]2OC)C1 [Example 73, (3R,4S,5S,6R)-5-methoxy-4-((2R,3R)-2-methyl-3-(3-methylbut-2-en-1-yl)oxiran-2-yl)-1-oxaspiro[2.5]octan-6-yl 3-(((2-(diethylamino)ethyl)carbamoyl)oxy)azetidine-1-carboxylate]	< 50	–	7.4	–	–
CNC(=O)NC1CN(C(=O)O[C@@H]2CC[C@]3(CO3)[C@@H]([C@@]3(C)O[C@@H]3CC=C(C)C)[C@@H]2OC)C1 [Example 84, (3R,4S,5S,6R)-5-methoxy-4-((2R,3R)-2-methyl-3-(3-methylbut-2-enyl)oxiran-2-yl)-1-oxaspiro[2.5]octan-6-yl 3-(3-methylureido)azetidine-1-carboxylate]	< 50	–	0.8	–	–
CCNCCC1CN(C(=O)O[C@@H]2CC[C@]3(CO3)[C@@H]([C@@]3(C)O[C@@H]3CC=C(C)C)[C@@H]2OC)C1 [Example 121, (3R,4S,5S,6R)-5-methoxy-4-((2R,3R)-2-methyl-3-(3-methylbut-2-en-1-yl)oxiran-2-yl)-1-oxaspiro[2.5]octan-6-yl3-(2-(ethylamino)ethyl)azetidine-1-carboxylate]	< 50	5	7.5	12.6	–
CCNC[C@@H]1CCN1C(=O)O[C@@H]1CC[C@]2(CO2)[C@@H]([C@@]2(C)O[C@@H]2CC=C(C)C)[C@@H]1OC [Example 122, (S)-((3R,4S,5S,6R)-5-methoxy-4-((2R,3R)-2-methyl-3-(3-methylbut-2-enyl)oxiran-2-yl)-1-oxaspiro[2.5]octan-6-yl) 2-((ethylamino)methyl)azetidine-1-carboxylate]	< 50	–	3.2	–	–
CCNCCCC1CN(C(=O)O[C@@H]2CC[C@]3(CO3)[C@@H]([C@@]3(C)O[C@@H]3CC=C(C)C)[C@@H]2OC)C1 [Example 124, (3R,4S,5S,6R)-5-methoxy-4-((2R,3R)-2-methyl-3-(3-methylbut-2-enyl)oxiran-2-yl)-1-oxaspiro[2.5]octan-6-yl 3-(3-(ethylamino)propyl)azetidine-1-carboxylate formate]	–	–	4.9	–	< 50
